Structures can show the parent of a compound that is named as a salt.
Columns and labels:
[1] = tested on: H460 human non-small cell lung cancer xenograft; assay: In vivo antitumor efficacy, H460 xenograft; parameters: species or system BALB/c immunodeficient nude mice; details: for Tumor inhibition rate %: by tumor weight
From the text: (§1) To evaluate the in vivo anticancer efficacy of COMPOUND O, H460 human non-small cell lung Cancer xenograft models in immunodeficient nude mice was used. The cell line and mice were maintained in the Pharmacology Lab of ACEA Bio (Hangzhou) CO., Ltd. The BALB/c immunodeficient nude mice were purchased from Shanghai SLAC Laboratory Animal, certification number: SCXKA (Shanghai) 2007-0005. The mouse weight was between 19±2 g. Only female mice were used in this study. The numbers of animals tested were as follows: 7 for each dose group, 7 for positive control group and 7 for negative control group.
(§2) Test Control. For negative control, each mouse was administered orally with the solvent only having the same volume and same concentration as those used in COMPOUND O test, 120 mg/kg once every other day (qod) for 25 days. For positive control, an oral anticancer compound, Etoposide was administered orally at 30 mg/kg qod for 25 days.
(§3) Preparation an Administration of Test Compounds. COMPOUND O was dissolved in 25% phospholipid (S75) and 75% polyvinylpyrrolidone (PL-PVP) then further diluted to 8 mg/ml in 0.9% NaCl aqueous solution. Each mouse was administered orally with the compound solution. Different dosages of COMPOUND O (120 mg/kg qod and 160 mg/kg q3d) were used in the study.
Preparation of tumor cells for transplantation and determination of compound efficacy. To prepare the cancer cells for H460 human non-small cell lung cancer xenograft model, the log phase growing cell in the flask were trypsinized and cells were re-suspended in PBS (pH 7.2) at 1.5×10^7 cells/ml. The cell suspension (3×10^6 cells) was subcutaneously injected into the auxiliary region (right-side) of each mouse. After the inoculated cancer cells grew to a tumor of certain size (150 mm^3) in the nude mice, the mice were randomized into different dosing groups and subjected to compound treatment. Between 3-4 weeks after the first dosing, mice were sacrificed and the transplanted tumors were removed from experimental mice. Each removed solid tumor was weighed; the tumor inhibition rate in each dosage group was calculated according to equation (1) in Example 1.
(§4) All used materials including animal food, animal cage, supporting materials and apparatus contacted by animals, were high-pressure sterilized. Nude mice were maintained in laminar flow shelves under SPF condition. After tumor transplantation, mouse weight and tumor size in each compound dosage group were dynamically monitored and plotted. The tumor size was determined by measuring the major axis (a) and minor axis (b) of the tumor, and tumor volume was calculated according to the formula (2) in Example 1.

[2] = Body weight and animal number of carrier mice, H460 xenograft test; assay type: in vivo, BALB/c immunodeficient nude mice; details: for Animal No. end: 7 at beginning
From the text: as §1, §2, §3, §4

[3] = tested on: H1838 cells (human non-small cell lung cancer cell line); assay: Inhibition of cell proliferation, xCelligence cell index; assay type: cell-based; details: NCI-H1838, 72 hr post compound treatment, read-out: calculated IC50
From the text: The biological activity of compounds disclosed herein was monitored and profiled using the Real-Time Cell Electronic Sensing (RT-CES®) system from ACEA Biosciences, Inc. The RT-CES system utilizes cell-substrate impedance technology to monitor cellular behavior inside tissue culture wells in a microtiter plate format. The technology features in the integration of molecular and cell biology with microelectronics and is based on the electronic detection of biological assay process. […]
For measurement of cell-substrate or cell-electrode impedance using RT-CES technology, microelectrodes having appropriate geometries are fabricated onto the bottom surfaces of microtiter plate or similar device, facing into the wells. […] When there are changes to the biological status of the cells analogue electronic readout signals are measured automatically and in real time, and are converted to digital signals for processing and for analysis. In a RT-CES system, a cell index (arbitrary representation of change in impedance) is automatically derived and provided based on measured electrode impedance values. […]
To quantify cell status based on the measured cell-electrode impedance, a parameter termed Cell Index is derived. Cell Index is a quantitative measure of the status of the cells in an electrode-containing well. […]

## COc1cc([C@@H]2c3cc4c(cc3[C@@H](O[C@@H]3O[C@@H]5CO[C@@H](C)O[C@H]5[C@H](O)[C@H]3O)[C@H]3COC(=O)[C@H]23)OCO4)cc(OC)c1O [Etoposide, reference compound]
[1]; 30 mg/kg ig × 13 qod
  TV inhibition rate % T/C: 50.4%
  Tumor volume (mm^3) End: 775.43 ± 302.62 mm^3
  Tumor volume (mm^3) Start: 163.79 ± 57.22 mm^3
  Tumor weight (g) x ± SD: 0.76 ± 0.29 g
  Tumor inhibition rate %: 48.4%
[2]; 30 mg/kg ig × 13 qod
  Animal weight (g) Beginning: 19.97 g
  Animal weight (g) end: 17.13 g
  Body weight of mice (g) 1 day: 19.97 ± 0.88 g
  Body weight of mice (g) 3 day: 19.66 ± 0.75 g
  Body weight of mice (g) 7 day: 19.70 ± 1.38 g
  Body weight of mice (g) 10 day: 19.66 ± 1.10 g
  Body weight of mice (g) 14 day: 18.86 ± 1.07 g
  Body weight of mice (g) 17 day: 18.79 ± 1.17 g
  Body weight of mice (g) 22 day: 17.86 ± 1.35 g
  Body weight of mice (g) 24 day: 17.56 ± 1.44 g
  Body weight of mice (g) 25 day: 17.13 ± 1.14 g
  Animal No. end: 7/7

## CC[C@]1(O)C[C@H]2CN(CCc3c([nH]c4ccccc34)[C@@](C(=O)OC)(c3cc4c(cc3OC)N(C=O)[C@H]3[C@@](O)(C(=O)OC)[C@H](OC(C)=O)[C@]5(CC)C=CCN6CC[C@]43[C@@H]65)C2)C1 [vincristine]
[3]
  IC50: 3.16 nM

## CCc1ccc(Nc2nc(-c3c(C)nc4sccn34)cs2)cc1 [COMPOUND O, 2-(4-ethylphenyl)amino-4-(6-methylimidazo[2,1-b]thiazol-5-yl)-thiazole monohydrobromide]
[3]
  IC50: 11.8 nM
[1]; 120 mg/kg ig × 11 qod
  TV inhibition rate % T/C: 47.0%
  Tumor volume (mm^3) End: 745.28 ± 245.55 mm^3
  Tumor volume (mm^3) Start: 162.09 ± 53.94 mm^3
  Tumor weight (g) x ± SD: 0.81 ± 0.29 g
  Tumor inhibition rate %: 47.1%
[1]; 160 mg/kg ig × 9 q3d
  TV inhibition rate % T/C: 69.9%
  Tumor volume (mm^3) End: 524.67 ± 141.77 mm^3
  Tumor volume (mm^3) Start: 171.44 ± 53.63 mm^3
  Tumor weight (g) x ± SD: 0.46 ± 0.13 g
  Tumor inhibition rate %: 31.3%
[2]; 120 mg/kg ig × 11 qod
  Animal weight (g) Beginning: 20.04 g
  Animal weight (g) end: 17.33 g
  Body weight of mice (g) 1 day: 20.04 ± 0.51 g
  Body weight of mice (g) 3 day: 19.80 ± 1.18 g
  Body weight of mice (g) 7 day: 18.86 ± 0.70 g
  Body weight of mice (g) 10 day: 18.20 ± 0.68 g
  Body weight of mice (g) 14 day: 18.11 ± 0.49 g
  Body weight of mice (g) 17 day: 17.43 ± 0.51 g
  Body weight of mice (g) 22 day: 17.24 ± 0.72 g
  Body weight of mice (g) 24 day: 17.56 ± 1.21 g
  Body weight of mice (g) 25 day: 17.33 ± 1.23 g
  Animal No. end: 7/7
[2]; 160 mg/kg ig × 9 q3d
  Animal weight (g) Beginning: 20.00 g
  Animal weight (g) end: 16.24 g
  Body weight of mice (g) 1 day: 20.00 ± 0.48 g
  Body weight of mice (g) 3 day: 20.54 ± 0.53 g
  Body weight of mice (g) 7 day: 18.64 ± 0.61 g
  Body weight of mice (g) 10 day: 17.89 ± 0.39 g
  Body weight of mice (g) 14 day: 17.83 ± 0.57 g
  Body weight of mice (g) 17 day: 18.24 ± 0.46 g
  Body weight of mice (g) 22 day: 16.91 ± 0.97 g
  Body weight of mice (g) 24 day: 16.53 ± 1.29 g
  Body weight of mice (g) 25 day: 16.24 ± 1.55 g
  Animal No. end: 7/7

— patent US20110207751A1, “HETEROCYCLIC COMPOUNDS AND USES AS ANTICANCER AGENTS” (priority 2010, published 2011)
